Test results taken from patent US10954252B1, “Inhibitors of human immunodeficiency virus replication” (ViiV HEALTHCARE UK (NO.5) LIMITED, priority 2017, dated 2021).

Experiments:
[1] = test system: recombinant NL4-3 virus (nef section replaced with Renilla luciferase gene) in MT-2 cells; experiment: HIV cell culture assay (antiviral activity, luciferase readout); type: cell-based; conditions: MT-2 cells infected for 4-5 days with recombinant NL4-3 luciferase virus
Method: HIV cell culture assay—MT-2 cells, 293T cells and the proviral DNA clone of NL4-3 virus were obtained from the NIH AIDS Research and Reference Reagent Program. MT-2 cells were propagated in RPMI 1640 media supplemented with 10% heat inactivated fetal bovine serum (FBS), 100 μg/ml penicillin G and up to 100 units/mL streptomycin. The 293T cells were propagated in DMEM media supplemented with 10% heat inactivated FBS, 100 μg/mL penicillin G and 100 μg/mL streptomycin. A recombinant NL4-3 proviral clone, in which a section of the nef gene was replaced with the Renilla luciferase gene, was used to make the reference virus used in these studies. The recombinant virus was prepared through transfection of the recombinant NL4-3 proviral clone into 293T cells using Transit-293 Transfection Reagent from Mirus Bio LLC (Madison, Wis.). Supernatent was harvested after 2-3 days and the amount of virus present was titered in MT-2 cells using luciferase enzyme activity as a marker by measuring luciferase enzyme activity. Luciferase was quantitated using the EnduRen Live Cell Substrate from Promega (Madison, Wis.). Antiviral activities of compounds toward the recombinant virus were quantified by measuring luciferase activity in MT-2 cells infected for 4-5 days with the recombinant virus in the presence of serial dilutions of the compound.
The 50% effective concentration (ECs) was calculated by using the exponential form of the median effect equation where (Fa)=1/[1+(ED50/drug conc.)^m] (Johnson Va., Byington RT. Infectivity Assay. In Techniques in HIV Research. ed. Aldovini A, Walker BD. 71-76. New York: Stockton Press. 1990).

[2] = Compound cytotoxicity, XTT-based colorimetric assay; type: cell-based; conditions: human, uninfected MT2 cells
Method: Compound cytotoxicity and the corresponding CC50 values were determined using the same protocol as described in the antiviral assay except that uninfected cells were used. Cytotoxicity was assessed on day 4 in uninfected MT2 cells by using a XTT (2,3-bis[2-Methoxy-4-nitro-5-sulfophenyl]-2H-tetrazolium-5-carboxyanilide inner salt)-based colorimetric assay (Sigma-Aldrich, St Louis, Mo.). Biological data for select compounds of the invention are contained in Table 1 and Table 1a

SMILES	CC50 at 4 days ([2]; Table 1a, day 4, XTT)	EC50 ([1]; Table 1a)	CC50 at 4 days ([2]; Table 1, day 4, XTT)	EC50 ([1]; Table 1)	other results
Cn1nc(NS(C)(=O)=O)c2c(Cl)ccc(-c3cc4sc(N)nc4nc3C(Cc3cc(F)cc(F)c3)NC(=O)Cn3nc(C(F)F)c4c3C(F)(F)[C@@H]3C[C@H]43)c21 (mixture of isomers) [Example 194, N-(1-(2-amino-6-(4-chloro-1-methyl-3-(methylsulfonamido)-1H-indazol-7-yl)thiazolo[4,5-b]pyridin-5-yl)-2-(3,5-difluorophenyl)ethyl)-2-((3bS,4aR)-3-(difluoromethyl)-5,5-difluoro-3b,4,4a,5-tetrahydro-1H-cyclopropa[3,4]cyclopenta[1,2-c]pyrazol-1-yl)acetamide]	> 10 µM				EC50 ([1]; Renilla, NL43, Table 1a): 1.9 nM
Cn1nc(NS(C)(=O)=O)c2c(Cl)ccc(-n3c([C@H](Cc4cc(F)cc(F)c4)NC(=O)Cn4nc(C(F)F)c5c4C(F)(F)[C@@H]4C[C@H]54)nc4cc(C(C)(F)F)ccc4c3=O)c21 (mixture of isomers) [Example 195, N—((S)-1-(3-(4-chloro-1-methyl-3-(methylsulfonamido)-1H-indazol-7-yl)-7-(1,1-difluoroethyl)-4-oxo-3,4-dihydroquinazolin-2-yl)-2-(3,5-difluorophenyl)ethyl)-2-((3bS,4aR)-3-(difluoromethyl)-5,5-difluoro-3b,4,4a,5-tetrahydro-1H-cyclopropa[3,4]cyclopenta[1,2-c]pyrazol-1-yl)acetamide]	> 1 µM				EC50 ([1]; Renilla, NL43, Table 1a): 74.4 nM
Cn1nc(NS(C)(=O)=O)c2c(Cl)ccc(-n3c([C@H](Cc4cc(F)cc(F)c4)NC(=O)Cn4nc(C(F)F)c5c4C(F)(F)[C@@H]4C[C@H]54)nc4cc(C5CC5)ccc4c3=O)c21 (mixture of isomers) [Example 197, N—((S)-1-(3-(4-chloro-1-methyl-3-(methylsulfonamido)-1H-indazol-7-yl)-7-cyclopropyl-4-oxo-3,4-dihydroquinazolin-2-yl)-2-(3,5-difluorophenyl)ethyl)-2-((3bS,4aR)-3-(difluoromethyl)-5,5-difluoro-3b,4,4a,5-tetrahydro-1H-cyclopropa[3,4]cyclopenta[1,2-c]pyrazol-1-yl)acetamide]	> 1 µM	42.6 nM			
Cn1nc(NS(C)(=O)=O)c2c(Cl)ccc(-n3c([C@H](Cc4cc(F)cc(F)c4)NC(=O)Cn4nc(C(F)F)c5c4C(F)(F)[C@@H]4C[C@H]54)nc4cc(S(C)(=O)=O)ccc4c3=O)c21 (mixture of isomers) [Example 199, N—((S)-1-(3-(4-chloro-1-methyl-3-(methylsulfonamido)-1H-indazol-7-yl)-7-(methylsulfonyl)-4-oxo-3,4-dihydroquinazolin-2-yl)-2-(3,5-difluorophenyl)ethyl)-2-((3bS,4aR)-3-(difluoromethyl)-5,5-difluoro-3b,4,4a,5-tetrahydro-1H-cyclopropa[3,4]cyclopenta[1,2-c]pyrazol-1-yl)acetamide]	> 1 µM	32.8 nM			
Cn1nc(NS(C)(=O)=O)c2c(Cl)ccc(-n3c([C@H](Cc4cc(F)cc(F)c4)NC(=O)Cn4nc(C(F)F)c5c4C(F)(F)[C@@H]4C[C@H]54)nc4cc(CS(C)(=O)=O)ccc4c3=O)c21 (mixture of isomers) [Example 201, N—((S)-1-(3-(4-chloro-1-methyl-3-(methylsulfonamido)-1H-indazol-7-yl)-7-((methylsulfonyl)methyl)-4-oxo-3,4-dihydroquinazolin-2-yl)-2-(3,5-difluorophenyl)ethyl)-2-((3bS,4aR)-3-(difluoromethyl)-5,5-difluoro-3b,4,4a,5-tetrahydro-1H-cyclopropa[3,4]cyclopenta[1,2-c]pyrazol-1-yl)acetamide]	> 1 µM	71.8 nM			
Cn1nc(NS(C)(=O)=O)c2c(Cl)ccc(-n3c([C@H](Cc4cc(F)cc(F)c4)NC(=O)Cn4nc(C(F)F)c5c4C(F)(F)[C@@H]4C[C@H]54)nc4cc(C(C)(C)S(C)(=O)=O)ccc4c3=O)c21 (mixture of isomers) [Example 207, N—((S)-1-(3-(4-chloro-1-methyl-3-(methylsulfonamido)-1H-indazol-7-yl)-7-(2-(methylsulfonyl)propan-2-yl)-4-oxo-3,4-dihydroquinazolin-2-yl)-2-(3,5-difluorophenyl)ethyl)-2-((3bS,4aR)-3-(difluoromethyl)-5,5-difluoro-3b,4,4a,5-tetrahydro-1H-cyclopropa[3,4]cyclopenta[1,2-c]pyrazol-1-yl)acetamide]	> 1 µM	4.49 nM			
Cn1nc(NS(C)(=O)=O)c2c(Cl)ccc(-n3c([C@H](Cc4cc(F)cc(F)c4)NC(=O)Cn4nc(C(F)F)c5c4C(F)(F)[C@@H]4C[C@H]54)nc4cc(C(C)(C)C)ccc4c3=O)c21 (mixture of isomers) [Example 215, N—((S)-1-(7-(tert-Butyl)-3-(4-chloro-1-methyl-3-(methylsulfonamido)-1H-indazol-7-yl)-4-oxo-3,4-dihydroquinazolin-2-yl)-2-(3,5-difluorophenyl)ethyl)-2-((3bS,4aR)-3-(difluoromethyl)-5,5-difluoro-3b,4,4a,5-tetrahydro-1H-cyclopropa[3,4]cyclopenta[1,2-c]pyrazol-1-yl)acetamide]	> 1 µM	354 nM			
Cn1nc(NS(C)(=O)=O)c2c(Cl)ccc(-n3c(C(Cc4cc(F)cc(F)c4)NC(=O)Cn4nc(C(F)F)c5c4C(F)(F)[C@@H]4C[C@H]54)nc4cccc(Cl)c4c3=O)c21 (mixture of isomers) [Example 22.1, N—((S)-1-(5-chloro-3-(4-chloro-1-methyl-3-(methylsulfonamido)-1H-indazol-7-yl)-4-oxo-3,4-dihydroquinazolin-2-yl)-2-(3,5-difluorophenyl)ethyl)-2-((3bS,4aR)-3-(difluoromethyl)-5,5-difluoro-3b,4,4a,5-tetrahydro-1H-cyclopropa[3,4]cyclopenta[1,2-c]pyrazol-1-yl)acetamide]			> 1 µM		EC50 ([1]; Renilla, NL43, Table 1): 31600 nM
Cc1cc(F)c2c(=O)n(-c3ccc(Cl)c4c(NS(C)(=O)=O)nn(C)c34)c(C(Cc3cc(F)cc(F)c3)NC(=O)Cn3nc(C(F)F)c4c3C(F)(F)[C@@H]3C[C@H]43)nc2c1 (mixture of isomers) [Example 171, N—((S)-1-(3-(4-chloro-1-methyl-3-(methylsulfonamido)-1H-indazol-7-yl)-5-fluoro-7-methyl-4-oxo-3,4-dihydroquinazolin-2-yl)-2-(3,5-difluorophenyl)ethyl)-2-((3bS,4aR)-3-(difluoromethyl)-5,5-difluoro-3b,4,4a,5-tetrahydro-1H-cyclopropa[3,4]cyclopenta[1,2-c]pyrazol-1-yl)acetamide]	> 1 µM				EC50 ([1]; Renilla, NL43, Table 1a): 3.96 nM
Cn1nc(NS(C)(=O)=O)c2c(Cl)ccc(-c3cc4scnc4nc3C(Cc3cc(F)cc(F)c3)NC(=O)Cn3nc(C(F)F)c4c3C(F)(F)[C@@H]3C[C@H]43)c21 (single isomer, unassigned) [Example 1.4]			> 10 µM	0.1 nM	
Cc1nc2nc(C(Cc3cc(F)cc(F)c3)NC(=O)Cn3nc(C(F)F)c4c3C(F)(F)[C@@H]3C[C@H]43)c(-c3ccc(Cl)c4c(NS(C)(=O)=O)nn(C)c34)cc2s1 (single isomer, unassigned) [Example 2.1]			> 10 µM	0.1 nM	
Cc1nc2nc(C(Cc3cc(F)cc(F)c3)NC(=O)Cn3nc(C(F)F)c4c3CCC4)c(-c3ccc(Cl)c4c(NS(C)(=O)=O)nn(C)c34)cc2s1 (single isomer, unassigned) [Example 2.3, N-(1-(6-(4-chloro-1-methyl-3-(methylsulfonamido)-1H-indazol-7-yl)-2-methylthiazolo[4,5-b]pyridin-5-yl)-2-(3,5-difluorophenyl)ethyl)-2-(3-(difluoromethyl)-5,6-dihydrocyclopenta[c]pyrazol-1(4H)-yl)acetamide]			> 10 µM	0.1 nM	
O=C(Cc1c[nH]c2ccc(O)cc12)NC(Cc1cc(F)cc(F)c1)c1nc2cn[nH]c2cc1-c1ccc2scnc2c1 (single isomer, unassigned) [Example 3.3, N-(1-(6-(benzo[d]thiazol-5-yl)-1H-pyrazolo[4,3-b]pyridin-5-yl)-2-(3,5-difluorophenyl)ethyl)-2-(5-hydroxy-1H-indol-3-yl)acetamide]			42.4 µM	5.7 nM	
O=C(Cc1c[nH]c2ccc(F)cc12)NC(Cc1cc(F)cc(F)c1)c1nc2cn[nH]c2cc1-c1ccc2scnc2c1 (single isomer, unassigned) [Example 3.5, N-(1-(6-(benzo[d]thiazol-5-yl)-1H-pyrazolo[4,3-b]pyridin-5-yl)-2-(3,5-difluorophenyl)ethyl)-2-(5-fluoro-1H-indol-3-yl)acetamide]			32.1 µM	20 nM	
